Starred links: 1 amine or outer side, 2 acyl side, 3 side chain; linkers in the order of their positions; H or OH if unused. Non-standard residues stand in square brackets, D forms with d. Residues, ends and D or L forms follow the SMILES beside them. Groups on a side chain read outwards from the residue. *: point of attachment. C18 diacid = O=C(O)CCCCCCCCCCCCCCCCC(=O)*; γGlu = O=C(O)[C@H](CCC(=O)[*:2])N[*:1]; Palmitoyl = CCCCCCCCCCCCCCCC(=O)*; AEEA = NCCOCCOCC(=O)O; Aib = CC(C)(N)C(=O)O
How the values were obtained:
Format in all cases: cell-based
rat CRF2R α receptor = assay: cAMP agonism at rat CRF2R α receptor in A7R5 rat aortic smooth muscle cells (Example 8); details: cAMP HTRF, A7R5 rat aortic smooth muscle cell line, 0% HSA
Method in brief: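 Thawed cryopreserved A7R5 cells in HBSS/20 mM HEPES (0 or 0.1% HSA) with 2 mM IBMX, 2000 cells/well, were exposed to compound for 30 min at room temperature. cAMP was read by HTRF (665/620 nm ratio) after 1 h with lysis reagents. Activity was normalised to 1000 nM urocortin 2 as 100%, and EC50 was taken as the concentration giving 50% of maximal activation.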

CRF1R receptor [1] = molecular target: T1, CRF1R receptor (Homo sapiens, UniProt P34998); assay: cAMP activity at anti-target CRF1R, CHO-K1 cell line clone 2 (Example 19.10); details: 100% = Sauvagine at 100 nM; CRF1R CHO-K1 clone 2
T1 construct: host or cells: CHO-K1 clone 2
T1 sequence (P34998 24-415): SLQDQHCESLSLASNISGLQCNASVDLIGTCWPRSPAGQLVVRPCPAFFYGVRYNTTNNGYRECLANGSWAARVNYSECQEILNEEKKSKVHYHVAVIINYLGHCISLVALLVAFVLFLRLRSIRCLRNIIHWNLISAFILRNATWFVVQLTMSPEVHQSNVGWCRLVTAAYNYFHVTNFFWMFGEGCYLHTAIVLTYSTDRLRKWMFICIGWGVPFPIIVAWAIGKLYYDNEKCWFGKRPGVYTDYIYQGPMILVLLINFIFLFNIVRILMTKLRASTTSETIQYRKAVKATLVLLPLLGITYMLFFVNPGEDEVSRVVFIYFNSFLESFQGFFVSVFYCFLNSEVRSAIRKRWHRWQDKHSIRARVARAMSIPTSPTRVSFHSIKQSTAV
Method in brief: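 A CRF1R-overexpressing CHO-K1 line (clone 2) was grown in F12/10% FBS/G418 and frozen in aliquots before use. The cAMP assay followed the preceding procedure, with 100% activation defined by Sauvagine at 100 nM.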

CRF1R receptor [2] = molecular target: T1, CRF1R receptor; assay: cAMP activity at anti-target CRF1R, CRF1R-overexpression CHO cell line (Example 9); details: CRF1R-overexpression CHO cell line; read-out: Emax (%)
Method in brief: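 cAMP accumulation was read by HTRF after 30 min at room temperature of compound treatment. Cells were cryopreserved CHO cells overexpressing CRF1R, plated at 2000/well in IBMX (2 mM)-containing HBSS/HEPES buffer with 0 or 0.1% HSA. Activity was normalized to 1000 nM UCN2 as 100%.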

| Structure (SMILES) | EC50 (rat CRF2R α receptor) [nM] | Emax (CRF1R receptor [1]) [%] | Emax (CRF1R receptor [2]) [%] |
| --- | --- | --- | --- |
| CCCCCCCCCCCCCCCC(=O)N[C@@H](CCC(=O)NCCCC[C@H](NC(=O)[C@H](CC(C)C)NC(=O)[C@H](CCCCN)NC(=O)[C@@H](NC(=O)[C@@H]1CCCN1C(=O)[C@H](NC(=O)[C@H](CC(=O)O)NC(=O)[C@H](CC(C)C)NC(=O)[C@H](CO)NC(=O)[C@H](CC(C)C)NC(=O)[C@@H](NC(=O)[C@@H](N)[C@@H](C)CC)C(C)C)C(C)C)[C@@H](C)O)C(=O)N[C@@H](CCC(N)=O)C(=O)N[C@@H](CCCCN)C(=O)N[C@@H](CC(C)C)C(=O)N[C@@H](CC(C)C)C(=O)N[C@@H](CCCCN)C(=O)N[C@@H](CCC(N)=O)C(=O)N[C@@H](CCC(=O)O)C(=O)N[C@@H](CCCNC(=N)N)C(=O)N[C@@H](CCC(N)=O)C(=O)N[C@@H](CCCNC(=N)N)C(=O)N[C@@H](CCCCN)C(=O)N[C@@H](CCC(=O)O)C(=O)N[C@@H](CCCNC(=N)N)C(=O)N[C@@H](CCC(=O)O)C(=O)NC(C)(C)C(=O)N[C@@H](C)C(=O)N[C@@H](CCC(=O)O)C(=O)N[C@@H](CCCCN)C(=O)N[C@@H](CC(N)=O)C(=O)N[C@@H](CCCCN)C(=O)N[C@@H](CCCNC(=N)N)C(=O)N[C@H](C(=O)N[C@@H](CC(C)C)C(=O)N[C@@H](CCC(=O)O)C(=O)N[C@@H](CCCNC(=N)N)C(=O)N[C@H](C(N)=O)C(C)C)[C@@H](C)CC)C(=O)O [SEQ ID NO: 225, IVLSLDvPTKLK*QKLLKQERQRKEREAibAEKNKRILERV-NH2] (H-IVLSLD[dV]PTKLK([γGlu-Palmitoyl])QKLLKQERQRKERE[Aib]AEKNKRILERV-NH2; N-terminus assumed) | 0.12 | 58.9 | – |
| CCCCCCCCCCCCCCCC(=O)N[C@@H](CCC(=O)NCCCC[C@H](NC(=O)[C@H](CC(C)C)NC(=O)CNC(=O)[C@@H](NC(=O)[C@@H]1CCCN1C(=O)[C@H](NC(=O)[C@H](CC(=O)O)NC(=O)[C@H](CC(C)C)NC(=O)[C@H](CO)NC(=O)[C@H](CC(C)C)NC(=O)[C@@H](NC(=O)[C@@H](N)[C@@H](C)CC)C(C)C)C(C)C)[C@@H](C)CC)C(=O)N[C@@H](CCC(N)=O)C(=O)N[C@@H](CCCCN)C(=O)N[C@@H](CC(C)C)C(=O)N[C@@H](CC(C)C)C(=O)N[C@@H](CCCCN)C(=O)N[C@@H](CCC(N)=O)C(=O)N[C@@H](CCC(N)=O)C(=O)N[C@@H](CCCNC(=N)N)C(=O)N[C@@H](CCC(N)=O)C(=O)N[C@@H](CCCNC(=N)N)C(=O)N[C@@H](CCCCN)C(=O)N[C@@H](CCC(=O)O)C(=O)N[C@@H](CCCNC(=N)N)C(=O)N[C@@H](CCC(N)=O)C(=O)N[C@@H](CCC(N)=O)C(=O)N[C@@H](C)C(=O)N[C@@H](CCC(=O)O)C(=O)N[C@@H](CCCCN)C(=O)N[C@@H](CC(N)=O)C(=O)N[C@@H](CCCCN)C(=O)N[C@@H](CCCNC(=N)N)C(=O)N[C@H](C(=O)N[C@@H](CC(C)C)C(=O)N[C@@H](CCC(=O)O)C(=O)N[C@@H](CCCNC(=N)N)C(=O)N[C@H](C(N)=O)C(C)C)[C@@H](C)CC)C(=O)O [SEQ ID NO: 226] (H-IVLSLD[dV]PIGLK([γGlu-Palmitoyl])QKLLKQQRQRKERQQAEKNKRILERV-NH2; N-terminus assumed) | 0.04 | 84 | – |
| CC[C@H](C)[C@H](NC(C)=O)C(=O)N[C@H](C(=O)N[C@@H](CC(C)C)C(=O)N[C@@H](CO)C(=O)N[C@@H](CC(C)C)C(=O)N[C@@H](CC(=O)O)C(=O)N[C@@H](C(=O)N1CCC[C@H]1C(=O)N[C@H](C(=O)NCC(=O)N[C@@H](CC(C)C)C(=O)N[C@@H](CCCCNC(=O)COCCOCCNC(=O)COCCOCCNC(=O)CC[C@H](NC(=O)CCCCCCCCCCCCCCCCC(=O)O)C(=O)O)C(=O)N[C@@H](CCC(N)=O)C(=O)N[C@H](C(=O)N[C@@H](CC(C)C)C(=O)N[C@@H](CC(C)C)C(=O)N[C@@H](CCC(=O)O)C(=O)N[C@@H](CCC(N)=O)C(=O)N[C@@H](CCC(=O)O)C(=O)N[C@@H](CCCNC(=N)N)C(=O)N[C@@H](CCC(N)=O)C(=O)N[C@@H](CCCCN)C(=O)NC(C)(C)C(=O)N[C@@H](CCC(N)=O)C(=O)N[C@@H](CCCNC(=N)N)C(=O)N[C@@H](CCC(=O)O)C(=O)N[C@@H](CCC(N)=O)C(=O)N[C@@H](C)C(=O)N[C@@H](CCC(=O)O)C(=O)N[C@@H](CCCCN)C(=O)N[C@@H](CC(N)=O)C(=O)N[C@@H](CCCCN)C(=O)N[C@@H](CCC(N)=O)C(=O)N[C@H](C(=O)N[C@@H](CC(C)C)C(=O)N[C@@H](CCC(=O)O)C(=O)N[C@@H](CCC(N)=O)C(=O)N[C@H](C(N)=O)C(C)C)[C@@H](C)CC)[C@@H](C)CC)[C@@H](C)CC)C(C)C)C(C)C [compound 164] (Ac-IVLSLD[dV]PIGLK([AEEA-AEEA-γGlu-C18 diacid])QILLEQERQK[Aib]QREQAEKNKQILEQV-NH2) | 12.6 | – | 25.8 |
| CC[C@H](C)[C@H](NC(C)=O)C(=O)N[C@H](C(=O)N[C@@H](CC(C)C)C(=O)N[C@@H](CO)C(=O)N[C@@H](CC(C)C)C(=O)N[C@@H](CC(=O)O)C(=O)N[C@@H](C(=O)N1CCC[C@H]1C(=O)N[C@H](C(=O)N[C@@H](CCCCN)C(=O)N[C@@H](CC(C)C)C(=O)N[C@@H](CCCCNC(=O)COCCOCCNC(=O)COCCOCCNC(=O)CC[C@H](NC(=O)CCCCCCCCCCCCCCCCC(=O)O)C(=O)O)C(=O)N[C@@H](CCC(N)=O)C(=O)N[C@H](C(=O)N[C@@H](CC(C)C)C(=O)N[C@@H](CC(C)C)C(=O)N[C@@H](CCC(=O)O)C(=O)N[C@@H](CCC(N)=O)C(=O)N[C@@H](C)C(=O)N[C@@H](CCCNC(=N)N)C(=O)N[C@@H](CCC(N)=O)C(=O)N[C@@H](CCCCN)C(=O)NC(C)(C)C(=O)N[C@@H](CCC(N)=O)C(=O)N[C@@H](CCCNC(=N)N)C(=O)N[C@@H](CCC(=O)O)C(=O)N[C@@H](CCC(N)=O)C(=O)N[C@@H](C)C(=O)N[C@@H](CCC(=O)O)C(=O)N[C@@H](CCCCN)C(=O)N[C@@H](CC(N)=O)C(=O)N[C@@H](CCC(=O)O)C(=O)N[C@@H](CCC(N)=O)C(=O)N[C@H](C(=O)N[C@@H](CC(C)C)C(=O)N[C@@H](CCC(=O)O)C(=O)N[C@@H](CCC(N)=O)C(=O)N[C@H](C(N)=O)C(C)C)[C@@H](C)CC)[C@@H](C)CC)[C@@H](C)CC)C(C)C)C(C)C [compound 165] (Ac-IVLSLD[dV]PIKLK([AEEA-AEEA-γGlu-C18 diacid])QILLEQARQK[Aib]QREQAEKNEQILEQV-NH2) | 2.41 | – | 26.9 |
| CC[C@H](C)[C@H](NC(C)=O)C(=O)N[C@H](C(=O)N[C@@H](CC(C)C)C(=O)N[C@@H](CO)C(=O)N[C@@H](CC(C)C)C(=O)N[C@@H](CC(=O)O)C(=O)N[C@@H](C(=O)N1CCC[C@H]1C(=O)N[C@H](C(=O)N[C@@H](CCCCN)C(=O)N[C@@H](CC(C)C)C(=O)N[C@@H](CCCCNC(=O)COCCOCCNC(=O)COCCOCCNC(=O)CC[C@H](NC(=O)CCCCCCCCCCCCCCCCC(=O)O)C(=O)O)C(=O)N[C@@H](CCC(N)=O)C(=O)N[C@H](C(=O)N[C@@H](CC(C)C)C(=O)N[C@@H](CC(C)C)C(=O)N[C@@H](CCC(=O)O)C(=O)N[C@@H](CCC(N)=O)C(=O)N[C@@H](CCC(=O)O)C(=O)N[C@@H](CCCNC(=N)N)C(=O)N[C@@H](CCC(N)=O)C(=O)N[C@@H](CCCCN)C(=O)NC(C)(C)C(=O)N[C@@H](CCC(N)=O)C(=O)N[C@@H](CCCNC(=N)N)C(=O)N[C@@H](CCC(=O)O)C(=O)N[C@@H](CCC(N)=O)C(=O)N[C@@H](C)C(=O)N[C@@H](CCC(=O)O)C(=O)N[C@@H](CCCCN)C(=O)N[C@@H](CC(N)=O)C(=O)N[C@@H](CCC(=O)O)C(=O)N[C@@H](CCC(N)=O)C(=O)N[C@H](C(=O)N[C@@H](CC(C)C)C(=O)N[C@@H](CCC(=O)O)C(=O)N[C@@H](CCC(N)=O)C(=O)N[C@H](C(N)=O)C(C)C)[C@@H](C)CC)[C@@H](C)CC)[C@@H](C)CC)C(C)C)C(C)C [compound 166] (Ac-IVLSLD[dV]PIKLK([AEEA-AEEA-γGlu-C18 diacid])QILLEQERQK[Aib]QREQAEKNEQILEQV-NH2) | 9.99 | – | 5.94 |

From patent US12679878B2, “CRF2 receptor agonists and their use in therapy” (SANOFI, priority 2020, dated 2026)
